Test results taken from ChEMBL document CHEMBL1201862, “PubChem BioAssay data set” (2004).
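48-hour exposure; five concentrations; linearly interpolated endpoints. GI50 is the concentration that inhibits growth by half.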 Calls of active or inactive are those of the source. Cut-off read from the data, not from the text of the source: active = GI50 up to about 1.1 µM and inactive = higher.

Experiments:
Assay in all cases: NCI tumour cell line growth inhibition, 48 h
[1] = tested on: SNB-19
[2] = tested on: CCRF-CEM
[3] = tested on: SR
[4] = tested on: TK-10
[5] = tested on: OVCAR-5
[6] = tested on: CAKI-1
[7] = tested on: UACC-257
[8] = tested on: Malme-3M
[9] = tested on: SF-295
[10] = tested on: OVCAR-3
[11] = tested on: MOLT-4
[12] = tested on: K562
[13] = tested on: RPMI-8226
[14] = tested on: LXFL 529
[15] = tested on: OVCAR-4
[16] = tested on: COLO 205
[17] = tested on: PC-3
[18] = tested on: BT-549
[19] = tested on: Hs-578T

Row | SMILES | GI50 [1] | GI50 [2] | GI50 [3] | GI50 [4] | GI50 [5] | GI50 [6] | GI50 [7] | GI50 [8] | GI50 [9] | GI50 [10] | GI50 [11] | GI50 [12] | GI50 [13] | GI50 [14] | GI50 [15] | GI50 [16] | GI50 [17] | GI50 [18] | GI50 [19]
1 | C[n+]1c2ccccc2cc2c(CNC(CCCNC(=N)N)C(=O)O)cccc21 (stereo not drawn) | 2.37 µM (inactive) | 0.179 µM (active) | 0.184 µM (active) | 0.67 µM (active) | 4.5 µM (inactive) | 0.518 µM (active) | 0.638 µM (active) | 2.05 µM (inactive) | 3.17 µM (inactive) | 2 µM (inactive) | 0.208 µM (active) | 0.22 µM (active) | 0.0682 µM (active) | 0.733 µM (active) | 11.4 µM (inactive) | 0.248 µM (active) | – | – | –
2 | O=[N+]([O-])c1cccnc1S(=O)(=O)c1ccccc1 | 19.8 µM (inactive) | 4.21 µM (inactive) | 3.99 µM (inactive) | 10 µM (inactive) | 15.8 µM (inactive) | 2.9 µM (inactive) | 17.4 µM (inactive) | 11.1 µM (inactive) | 18.5 µM (inactive) | 2.01 µM (inactive) | 2.84 µM (inactive) | 3.45 µM (inactive) | 8.71 µM (inactive) | 2.4 µM (inactive) | 6.47 µM (inactive) | 5.97 µM (inactive) | – | – | –
3 | COC(=O)N/N=C(\C)C(CN1CCCCC1)C(C1=C(O)c2ccccc2OC1)c1ccccc1 (stereo not drawn) | > 100 µM (inactive) | > 100 µM (inactive) | > 100 µM (inactive) | > 100 µM (inactive) | > 100 µM (inactive) | > 100 µM (inactive) | > 100 µM (inactive) | > 100 µM (inactive) | > 100 µM (inactive) | > 100 µM (inactive) | > 100 µM (inactive) | > 100 µM (inactive) | > 100 µM (inactive) | > 100 µM (inactive) | > 100 µM (inactive) | > 100 µM (inactive) | – | – | –
4 | COCOC1CCCC[C@@]1(OCCOCCO[C@@]1(c2ccccc2)CCCC[C@H]1OCOC)c1ccccc1 (stereo partly drawn) | > 100 µM (inactive) | > 100 µM (inactive) | > 100 µM (inactive) | 70.6 µM (inactive) | > 100 µM (inactive) | 41.1 µM (inactive) | > 100 µM (inactive) | > 100 µM (inactive) | 32.4 µM (inactive) | > 100 µM (inactive) | > 10 µM (inactive) | > 100 µM (inactive) | > 100 µM (inactive) | > 100 µM (inactive) | > 100 µM (inactive) | > 100 µM (inactive) | – | – | –
5 | O=C(Nc1ccn(CCI)c(=O)n1)c1ccccc1 | – | > 100 µM (inactive) | > 100 µM (inactive) | > 100 µM (inactive) | > 100 µM (inactive) | > 100 µM (inactive) | > 100 µM (inactive) | > 100 µM (inactive) | > 100 µM (inactive) | > 100 µM (inactive) | – | > 100 µM (inactive) | > 100 µM (inactive) | > 100 µM (inactive) | > 100 µM (inactive) | > 100 µM (inactive) | – | – | –
6 | CC(=O)OC1CCn2nnc(CO[Si](C)(C)C(C)(C)C)c21 (stereo not drawn) | > 100 µM (inactive) | – | > 100 µM (inactive) | > 100 µM (inactive) | > 100 µM (inactive) | > 100 µM (inactive) | > 100 µM (inactive) | > 100 µM (inactive) | > 100 µM (inactive) | > 100 µM (inactive) | > 100 µM (inactive) | > 100 µM (inactive) | > 100 µM (inactive) | > 100 µM (inactive) | > 100 µM (inactive) | > 100 µM (inactive) | – | – | –
7 | CN(O)C(=O)Cc1ccccc1 | > 100 µM (inactive) | > 100 µM (inactive) | > 100 µM (inactive) | > 100 µM (inactive) | > 100 µM (inactive) | > 100 µM (inactive) | > 100 µM (inactive) | > 100 µM (inactive) | > 100 µM (inactive) | > 100 µM (inactive) | > 100 µM (inactive) | > 100 µM (inactive) | > 100 µM (inactive) | > 100 µM (inactive) | > 100 µM (inactive) | > 100 µM (inactive) | – | – | –
8 | O=C(CC1=Nc2nnc(CCCCCCCc3nnc4n3C(=O)C(CC(=O)c3ccccc3)=N4)n2C1=O)c1ccccc1 | > 100 µM (inactive) | > 100 µM (inactive) | > 100 µM (inactive) | > 100 µM (inactive) | > 100 µM (inactive) | > 100 µM (inactive) | > 100 µM (inactive) | > 100 µM (inactive) | > 100 µM (inactive) | > 100 µM (inactive) | > 100 µM (inactive) | > 100 µM (inactive) | > 100 µM (inactive) | > 100 µM (inactive) | – | > 100 µM (inactive) | – | – | –
9 | CC(C)/C=C1\CCC(CN(C)C)C1=O (stereo not drawn) | 9.66 µM (inactive) | 1.63 µM (inactive) | 0.951 µM (active) | 2.09 µM (inactive) | 8.41 µM (inactive) | 1.32 µM (inactive) | 4.63 µM (inactive) | 1.04 µM (active) | 16.6 µM (inactive) | 2.82 µM (inactive) | 1.07 µM (active) | 0.893 µM (active) | 0.13 µM (active) | 1.5 µM (inactive) | 7.35 µM (inactive) | 0.586 µM (active) | 4.66 µM (inactive) | 3.17 µM (inactive) | 1.86 µM (inactive)
